Measured values reported in BindingDB's records for doi:10.1021/jm030306r (Merck Research Laboratories, 2003).

Biological target: Integrin alpha-IIb/beta-3 (Homo sapiens, UniProt P08514+P05106)
Test: Inhibition of alphaIIb-beta3 integrin mediated platelet aggregation

Integrin alpha-IIb/beta-3, sequence (P05106 27-788 limits assumed): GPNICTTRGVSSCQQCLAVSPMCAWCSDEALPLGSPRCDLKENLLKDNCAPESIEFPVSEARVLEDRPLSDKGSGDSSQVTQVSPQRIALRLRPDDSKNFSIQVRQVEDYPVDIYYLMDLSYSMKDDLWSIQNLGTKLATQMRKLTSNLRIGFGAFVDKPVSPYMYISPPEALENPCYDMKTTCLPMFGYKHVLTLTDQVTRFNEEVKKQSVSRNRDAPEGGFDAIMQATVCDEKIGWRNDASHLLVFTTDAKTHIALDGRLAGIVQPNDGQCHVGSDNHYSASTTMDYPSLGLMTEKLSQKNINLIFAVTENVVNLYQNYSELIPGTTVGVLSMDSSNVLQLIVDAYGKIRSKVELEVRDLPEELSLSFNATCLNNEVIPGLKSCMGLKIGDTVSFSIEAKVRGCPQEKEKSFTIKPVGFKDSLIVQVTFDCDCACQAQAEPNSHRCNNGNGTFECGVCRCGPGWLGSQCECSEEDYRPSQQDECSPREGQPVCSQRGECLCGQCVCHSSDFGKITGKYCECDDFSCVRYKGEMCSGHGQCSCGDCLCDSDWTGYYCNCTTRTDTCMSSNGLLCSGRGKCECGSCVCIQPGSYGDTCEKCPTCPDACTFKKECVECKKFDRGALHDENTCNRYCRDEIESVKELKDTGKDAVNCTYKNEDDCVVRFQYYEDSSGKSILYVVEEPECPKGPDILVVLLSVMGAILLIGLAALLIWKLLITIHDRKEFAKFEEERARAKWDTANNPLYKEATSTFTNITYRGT
Integrin alpha-IIb/beta-3, sequence (P08514 32-887 limits assumed): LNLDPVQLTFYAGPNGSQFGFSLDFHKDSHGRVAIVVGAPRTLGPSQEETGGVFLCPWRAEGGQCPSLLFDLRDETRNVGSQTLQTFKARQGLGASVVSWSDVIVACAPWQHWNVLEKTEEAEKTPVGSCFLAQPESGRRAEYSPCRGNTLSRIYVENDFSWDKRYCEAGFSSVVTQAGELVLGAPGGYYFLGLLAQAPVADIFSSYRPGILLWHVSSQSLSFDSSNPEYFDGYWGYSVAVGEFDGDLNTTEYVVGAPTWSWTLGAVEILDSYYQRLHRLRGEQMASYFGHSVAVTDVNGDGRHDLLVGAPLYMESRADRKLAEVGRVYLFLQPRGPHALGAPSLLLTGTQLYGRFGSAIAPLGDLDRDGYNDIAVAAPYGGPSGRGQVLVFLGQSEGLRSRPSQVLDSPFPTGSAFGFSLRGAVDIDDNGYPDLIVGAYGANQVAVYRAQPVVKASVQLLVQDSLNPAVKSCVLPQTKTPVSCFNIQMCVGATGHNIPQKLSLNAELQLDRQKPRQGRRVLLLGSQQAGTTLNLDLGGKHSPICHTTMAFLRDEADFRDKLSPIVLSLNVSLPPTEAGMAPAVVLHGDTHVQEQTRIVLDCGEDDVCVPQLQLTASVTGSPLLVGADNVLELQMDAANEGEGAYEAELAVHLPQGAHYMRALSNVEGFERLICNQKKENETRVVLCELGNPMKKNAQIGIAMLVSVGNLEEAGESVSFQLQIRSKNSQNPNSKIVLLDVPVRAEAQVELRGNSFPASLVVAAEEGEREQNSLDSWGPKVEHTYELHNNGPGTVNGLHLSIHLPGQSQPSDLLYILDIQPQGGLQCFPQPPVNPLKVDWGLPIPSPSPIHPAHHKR
Integrin alpha-IIb/beta-3, sequence (P08514 891-1039 limits assumed): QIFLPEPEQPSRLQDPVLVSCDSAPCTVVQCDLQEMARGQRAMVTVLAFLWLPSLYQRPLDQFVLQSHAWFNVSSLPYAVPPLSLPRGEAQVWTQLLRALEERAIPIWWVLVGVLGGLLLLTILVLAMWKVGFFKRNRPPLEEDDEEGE

IC50: 34.7 µM
Compound: COc1ccc([C@H](CC(=O)O)N2CCN(CCCc3ccc4c(n3)NCCC4)C2=O)cn1 [(S)-3-(6-Methoxy-pyridin-3-yl)-3-{2-oxo-3-[3-(5,6,7,8-tetrahydro-[1,8]naphthyridin-2-yl)-propyl]-imidazolidin-1-yl}-propionic acid]
